From patent US20140309295A1, “ANTIEPILEPTIC, HYPOCHOLESTEROLEMIC AND NEUROPROTECTIVE COMPOUND” (NEURON BIOPHARMA, S.A., priority 2009, published 2014)

Assays:
[1] = test system: human neuroblastoma SK-N-MC cells; experiment: Inhibition of camptothecin-induced apoptosis by flow cytometry (sub-G1); type: cell-based; settings: 50 μM camptothecin
Description: (§1) The assay was performed on human neuroblastoma SK-N-MC cells in culture from the American Type Culture Collection (ATCC), in all cases strict rules of sterility were followed and the manipulation was performed in class II biological safety cabinets following European standard EN 12469. The cells were maintained in the following culture medium: Minimum Essential Medium Eagle (MEM) supplemented with 1 mM sodium pyruvate, 2 mM L-glutamine, 0.1 mM non-essential amino acids, 0.05 mg/ml gentamicin and 10% fetal bovine serum.
The inhibition caused by compound NST0037 against apoptosis (programmed cell death) caused by treatment with camptothecin which inhibits the enzyme Topoisomerase I, which prevents DNA duplication and triggers apoptotic cell death, was analyzed. These cells, not exceeding 15 passages, were seeded on 6-well plates treated for adherent cells with a cell concentration of 8×10^5 cells/well and 7×10^5 cells/well for the assay with pretreatment; 2 wells of the plate were seeded for each condition of the assay.
After 24 hours of cell incubation at 37° C. and 5% CO2, the cell treatments were performed with 2 ml of total volume for the following conditions: • Control: culture medium (medium) • Camptothecin: medium plus camptothecin 50 μM. • Camptothecin plus Z-VAD-fmk: medium plus 50 μM camptothecin plus 50 μM Z-VAD-fmk, as positive inhibition control. • Camptothecin plus NST0037: medium plus 50 μM camptothecin plus NST0037 at 10, 40 or 100 μM.
In the assay with pretreatment, the cells were previously treated with 40 μM of NST0037, 100 μM of mevalonate or both together for 24 hours and then they were treated with 50 μM camptothecin, the rest of the procedure was similar to the assay without pretreatment.
The cells were incubated (at 37° C. and 5% CO2) with these treatments for 6 hours, after which time they were collected along with their culture medium and centrifuged at 300×g for 5 minutes. The medium was removed, a washing was performed with PBS and the cells were fixed for 2 minutes with 500 μl of 70% ethanol at −20° C. Once fixed, they were centrifuged at 400×g for 5 minutes, washed with PBS and 0.05 mg/ml propidium iodide, diluted in cycling buffer (0.1% sodium citrate, 0.3% Nonidet P-40 and 0.02 mg/ml RNase) were added and they were incubated for 1 hour at 37° C. After this time they were analyzed by flow cytometry, comparing the fluorescence of propidium iodide against the amount of DNA. The percentage of apoptosis was measured on the sub-G1 region of each of the conditions.

[2] = test system: seladin-1/DHCR24 gene; experiment: seladin-1/DHCR24 gene expression in SK-N-MC cells (real-time quantitative RT-PCR); type: cell-based, human; settings: 1, 4, 10 or 40 μM, 24 hours
Description: as §1
The expression of the seladin-1/DHCR24 gene (NCBI Reference Sequence: NM_014762.3) was analyzed by means of real-time quantitative RT-PCR in comparison with memantine (a drug normally used to treat Alzheimer's disease). […] The total RNA was extracted by means of the High Pure RNA Isolation kit (Roche) and the amount and quality of the RNA were analyzed by means of spectrophotometry (Infinite 200 with NanoQuant, Tecan) and viewing of the 18S and 28S bands by means of electrophoresis. The RT-PCR was performed by means of two steps, first, the mRNA was changed to cDNA using the RNA to cDNA kit (Applied Biosystem) and the gene expression was subsequently analyzed by means of TaqMan probes using the validated probes Hs00207388_m1 for seladin-1/DHCR24 and Hs99999901_s1 for 18S (used to normalize the results) in the 7500 Fast Real-Time PCR System equipment (Applied Biosystem). […]

[3] = test system: zebrafish larvae; experiment: Acute toxicity assay in zebrafish larvae (24 hours); type: in vivo, Danio rerio; settings: for Mortality (dead larvae/total): 1 day
Description: To evaluate the biosafety of compound NST0037, its toxicological effects on the zebrafish larvae model were analyzed by means of determining the safety parameters of the OECD C15 protocol.
The fertilized eggs were obtained by natural mating of the zebrafish (Danio rerio, AB strain). A total of 8-10 pairs were used for each cross and a total of 200-250 eggs were generated on average per pair. The eggs were collected immediately after spawning and were washed with dilution water (CaCl2.2H2O2 0.29 g/L, MgSO4.7H2O2 0.12 g/L, NaHCO3 0.065 g/L, KCl 0.006 g/L), the pH being adjusted to 7.8±0.2, in accordance with EC Regulation 440/2008, method C.1, and were deposited in a Petri dish.
The embryos were developed normally until 96 hours post-fertilization in their growth medium. […] […]. Each experiment was performed in triplicate.
The studies were conducted for 24 hours of treatment, thus performing an acute toxicity assay. […].
After the time of exposure of the substances under study, the record of the mortality of the larvae was determined. […].
[…]. The percentage of healthy larvae was defined as the number of live larvae without symptoms of external physiopathological anomalies (morphological and/or behavioral), the latter being a parameter determining the biosafety of a substance under study and is complementary to the survival rates and to LD50. […].
The anomalies recorded in the study are described below: • Thrombosis in the yolk sac: it is a clot inside a blood vessel, in this case of any vessel irrigating the yolk. • Cardiac thrombosis: occurs in a cardiac vessel. • Cardiac edema (or hydrops): accumulation of fluid in the intercellular tissue space and also in the cavities of the organism. In the case of the heart, it causes the accumulation of fluid in the pericardial sac.

CCC(CC)C(=O)O[C@H]1C[C@@H](C)C=C2C=C[C@H](C)[C@H](CC[C@@H]3C[C@@H](O)CC(=O)O3)[C@H]21 [NST0037, (1S,2S,6R,8S,8aR)-1,2,6,7,8,8a-hexahydro-3,7-dimethyl-8-[2-[(2R,4R)-tetrahydro-4-hydroxy-6-oxo-2H-pyran-2-yl]ethyl]-1-naphthalenyl-2-ethyl-butyrate]
maximum protection (inhibition of apoptosis caused by camptothecin) ([1]; 40 and 100 μM NST0037, 6 h, no pretreatment): 18% | percentage of protection (inhibition of apoptosis) with pretreatment ([1]; 24 h pretreatment with 40 μM NST0037): up to 45% | seladin-1/DHCR24 gene expression [2]: increase of seladin-1/DHCR24 gene expression | Mortality (dead larvae/total) ([3]; Dose 10 mg/Kg): 0/30 | Mortality (dead larvae/total) ([3]; Dose 30 mg/Kg): 0/30 | Mortality (dead larvae/total) ([3]; Dose 100 mg/Kg): 0/30 | Mortality (dead larvae/total) ([3]; Dose 300 mg/Kg): 0/30 | Mortality (dead larvae/total) ([3]; Dose 1000 mg/Kg): 0/30 | percentage of healthy larvae ([3]; highest study dose (1000 mg/Kg), 24 hours): 67.9±3.3%
